Experimental data reported in patent publication US20130177609A1, “Compositions and Methods for Increasing Bioavailability of Topical Ophthalmic Drugs” (priority 2008, published 2013).
Read-outs that look alike come from different tables or passages of the source.

Assay: Example 2: ocular tissue pharmacokinetics after topical dose, decreasing dose volume at same total amount of drug
Type: in vivo, New Zealand Composite pigmented rabbits
Settings: for DNAUC / AUC(0-t) / Cmax / Tmax: topical ocular; for exposure (absolute Cmax and AUC): constant 10 μg dose, varying volume/concentration
Procedure: This study was carried out using a non-crossover design involving a total of 84 New Zealand Composite pigmented rabbits arbitrarily divided into 3 groups of 28 rabbits each. Three compositions were prepared as aqueous suspensions substantially as disclosed above comprising 1, 0.33, and 0.1 mg/mL BOL-303242-X, respectively. Each composition also contained 100 mg/mL PEG 3350 and 10 mg/mL Tween® 80. The compositions were shipped to the test site as a ready-to-use suspension.
The test compositions were administered so as to achieve 10-μg topical dosed drug amount in each eye of all the study animals. The concentration of the composition and the instillation volume were varied between the three study groups to keep the dosed drug amount constant. Animals in Group 1 received 10 μL/eye of the 1.0 mg/mL composition; animals comprising Groups 2 and 3 received 30 μL/eye of the 0.33 mg/mL composition and 100 μL/eye of the 0.1 mg/mL composition, respectively.
At predetermined time intervals after dosing, rabbits (four per collection time) were euthanized after anesthetization and the eyes enucleated and dissected. Tear, aqueous humor, conjunctiva, cornea, and iris/ciliary body samples were collected from both eyes of each animal and stored frozen until being shipped on dry ice to the analytical laboratory. Samples were collected at 0.083, 0.25, 0.5, 1, 2, 4, and 6 hours after dosing. BOL-303242-X concentrations in the above tissues and matrices were determined by LC/MS/MS. For the purpose of calculating mean concentrations, a value of ½ the LLQ was assigned to all samples with concentrations below the LLQ (BLQ). In addition, any sample with a measured concentration that was more than 10-fold higher than the median concentration in the respective sample pool was considered an outlier, and was not included in any calculations. Similarly, concentrations that were 10-fold lower than the median value and below the LLQ were also considered to be outliers. The number of study samples that were determined to be outliers using the above criteria for each tissue/matrix in this study was: tears=14/144; conjunctiva=3/144; cornea=1/144; aqueous humor 2/144 and iris=4/144 samples.
Pharmacokinetic analysis of the composite concentration-versus-time data was performed using non-compartmental methods (WinNonlin version 5.2). Due to the destructive nature of the sampling regimen employed in this study, average composite data were used in the pharmacokinetic analysis.

[1] = Conjunctiva, 10 μL/eye of 1 mg/mL (10 μg)
[2] = Conjunctiva, 30 μL/eye of 0.33 mg/mL (10 μg)
[3] = Conjunctiva, 100 μL/eye of 0.1 mg/mL (10 μg)
[4] = Cornea, 10 μL/eye of 1 mg/mL (10 μg)
[5] = Cornea, 30 μL/eye of 0.33 mg/mL (10 μg)
[6] = Cornea, 100 μL/eye of 0.1 mg/mL (10 μg)
[7] = Iris/Ciliary Body, 30 μL/eye of 0.33 mg/mL (10 μg)
[8] = Iris/Ciliary Body, 100 μL/eye of 0.1 mg/mL (10 μg)
[9] = New Zealand Composite pigmented, rabbit, aqueous humor, topical or ocular, 10 ug, 10 μL/eye of 1 mg/mL (10 μg)
[10] = New Zealand Composite pigmented, rabbit, aqueous humor, topical or ocular, 10 ug, 30 μL/eye of 0.33 mg/mL (10 μg)
[11] = New Zealand Composite pigmented, rabbit, aqueous humor, topical or ocular, 10 ug, 100 μL/eye of 0.1 mg/mL (10 μg)
[12] = New Zealand Composite pigmented, rabbit, conjunctiva, topical or ocular, 10 ug, 10 μL/eye of 1 mg/mL (10 μg)
[13] = New Zealand Composite pigmented, rabbit, conjunctiva, topical or ocular, 10 ug, 30 μL/eye of 0.33 mg/mL (10 μg)
[14] = New Zealand Composite pigmented, rabbit, conjunctiva, topical or ocular, 10 ug, 100 μL/eye of 0.1 mg/mL (10 μg)
[15] = New Zealand Composite pigmented, rabbit, cornea, topical or ocular, 10 ug, 10 μL/eye of 1 mg/mL (10 μg)
[16] = New Zealand Composite pigmented, rabbit, cornea, topical or ocular, 10 ug, 30 μL/eye of 0.33 mg/mL (10 μg)
[17] = New Zealand Composite pigmented, rabbit, cornea, topical or ocular, 10 ug, 100 μL/eye of 0.1 mg/mL (10 μg)
[18] = New Zealand Composite pigmented, rabbit, iris/ciliary body, topical or ocular, 10 ug, 30 μL/eye of 0.33 mg/mL (10 μg)
[19] = New Zealand Composite pigmented, rabbit, iris/ciliary body, topical or ocular, 10 ug, 100 μL/eye of 0.1 mg/mL (10 μg)
[20] = New Zealand Composite pigmented, rabbit, tears, topical or ocular, 10 ug, 10 μL/eye of 1 mg/mL (10 μg)
[21] = New Zealand Composite pigmented, rabbit, tears, topical or ocular, 10 ug, 30 μL/eye of 0.33 mg/mL (10 μg)
[22] = New Zealand Composite pigmented, rabbit, tears, topical or ocular, 10 ug, 100 μL/eye of 0.1 mg/mL (10 μg)
[23] = Tears, 10 μL/eye of 1 mg/mL (10 μg)
[24] = Tears, 30 μL/eye of 0.33 mg/mL (10 μg)
[25] = Tears, 100 μL/eye of 0.1 mg/mL (10 μg)

Cc1ccc2c(NCC(O)(CC(C)(C)c3cc(F)cc4c3OCC4)C(F)(F)F)cccc2n1 (stereo not drawn) [BOL-303242-X]
DNAUC (Aqueous Humor, 10 μL/eye of 1 mg/mL (10 μg)): 0.800 ng*hr/g ÷ μg dose
DNAUC (Aqueous Humor, 30 μL/eye of 0.33 mg/mL (10 μg)): 0.300 ng*hr/g ÷ μg dose
DNAUC (Aqueous Humor, 100 μL/eye of 0.1 mg/mL (10 μg)): 0.700 ng*hr/g ÷ μg dose
AUC(0-t) [1]: 0.742 µg·h/g
DNAUC [1]: 74.2 ng*hr/g ÷ μg dose
AUC(0-t) [2]: 0.575 µg·h/g
DNAUC [2]: 57.5 ng*hr/g ÷ μg dose
AUC(0-t) [3]: 0.212 µg·h/g
DNAUC [3]: 21.2 ng*hr/g ÷ μg dose
AUC(0-t) [4]: 1.01 µg·h/g
DNAUC [4]: 101 ng*hr/g ÷ μg dose
AUC(0-t) [5]: 1.02 µg·h/g
DNAUC [5]: 102 ng*hr/g ÷ μg dose
AUC(0-t) [6]: 0.745 µg·h/g
DNAUC [6]: 74.5 ng*hr/g ÷ μg dose
DNAUC (Iris/Ciliary Body, 10 μL/eye of 1 mg/mL (10 μg)): 27.3 ng*hr/g ÷ μg dose
AUC(0-t) (Iris/Ciliary Body, 10 μL/eye of 1 mg/mL (10 μg), heavily influenced by 2 animals at 2 hour): 0.273 µg·h/g
AUC(0-t) [7]: 0.0206 µg·h/g
DNAUC [7]: 2.06 ng*hr/g ÷ μg dose
AUC(0-t) [8]: 0.0186 µg·h/g
DNAUC [8]: 1.86 ng*hr/g ÷ μg dose
AUC(0-t) (New Zealand Composite pigmented, rabbit, aqueous humor, topical or ocular, 10 ug, Aqueous Humor, 10 μL/eye of 1 mg/mL (10 μg), read-out: AUC(0-t)): 8 ng·h/mL
AUC(0-t) (New Zealand Composite pigmented, rabbit, aqueous humor, topical or ocular, 10 ug, Aqueous Humor, 30 μL/eye of 0.33 mg/mL (10 μg), read-out: AUC(0-t)): 3 ng·h/mL
AUC(0-t) (New Zealand Composite pigmented, rabbit, aqueous humor, topical or ocular, 10 ug, Aqueous Humor, 100 μL/eye of 0.1 mg/mL (10 μg), read-out: AUC(0-t)): 7 ng·h/mL
Cmax [9]: 0.17 ng/mL
Tmax [9]: 120 min
Cmax [10]: 0.188 ng/mL
Tmax [10]: 120 min
Cmax [11]: 0.286 ng/mL
Tmax [11]: 120 min
Cmax [12]: 399 ± 100 ng/g
Tmax [12]: 4.98 min
Cmax [13]: 450 ± 269 ng/g
Tmax [13]: 15 min
Cmax [14]: 168 ± 101 ng/g
Tmax [14]: 15 min
Cmax [15]: 527 ± 213 ng/g
Tmax [15]: 30 min
Cmax [16]: 592 ± 297 ng/g
Tmax [16]: 4.98 min
Cmax [17]: 452 ± 129 ng/g
Tmax [17]: 15 min
Tmax (New Zealand Composite pigmented, rabbit, iris/ciliary body, topical or ocular, 10 ug, 10 μL/eye of 1 mg/mL (10 μg)): 120 min
Cmax (New Zealand Composite pigmented, rabbit, iris/ciliary body, topical or ocular, 10 ug, 10 μL/eye of 1 mg/mL (10 μg), heavily influenced by 2 animals at 2 hour): 262 ng/g
Cmax [18]: 41.9 ± 37.8 ng/g
Tmax [18]: 4.98 min
Cmax [19]: 5.92 ± 7.26 ng/g
Tmax [19]: 60 min
Cmax [20]: 247000 ng/g
Tmax [20]: 15 min
Cmax [21]: 32000 ng/g
Tmax [21]: 4.98 min
Cmax [22]: 7170 ng/g
Tmax [22]: 15 min
AUC(0-t) [23]: 60.2 µg·h/g
DNAUC [23]: 6020 ng*hr/g ÷ μg dose
AUC(0-t) [24]: 18.2 µg·h/g
DNAUC [24]: 1820 ng*hr/g ÷ μg dose
AUC(0-t) [25]: 7.74 µg·h/g
DNAUC [25]: 774 ng*hr/g ÷ μg dose
exposure (absolute Cmax and AUC) (cornea, iris/ciliary body and aqueous humor): remained relatively constant
ocular bioavailability (dose volume decreased while drug concentration in the formulation increased proportionally): increases
exposure (absolute Cmax and AUC) (tears): increases as the concentration of the drug in the dose volume increases
